Data taken from US20260131015A1, “NEODEGRADER CONJUGATES” (priority 2022, published 2026).

Assays:
NCI-H510A SCLC cell line = test: In Vitro Cytotoxicity Assay II (WST-8 cell viability); type: cell-based; settings: 120 hours, WST-8, Table 4
Procedure: (§1) Cell lines were harvested and plated into 96-well plates. […] The cell viability was determined by colorimetric WST-8 assay (Dojindo Molecular Technologies, Inc.). The OD450 value was read using the SpectraMax M5 plate reader. The values were normalized for each cell line, and IC50s were calculated using the Prism software.

NCI-H82 SCLC cell line = test: as above; type: cell-based; settings: NCI-H82, 120 hours, WST-8, Table 4
Procedure: as §1

NCI-H146 SCLC cell line = test: as above; type: cell-based; settings: NCI-H146, 120 hours, WST-8, Table 4
Procedure: as §1

[1] = test system: NCI-H526 human SCLC cell line; test: In Vitro Cytotoxicity Assay I (WST-8 cell viability); type: cell-based; settings: NCI-H526, 120 hours, WST-8, Table 3
Procedure: (§2) The cell viability was determined by colorimetric WST-8 assay (Dojindo Molecular Technologies, Inc.). The OD450 value was read using the SpectraMax M5 plate reader. The values were normalized for each cell line, and IC50 values were calculated using the Prism software.

[2] = test system: IMR32 human neuroblastoma (NB) cell line; test: as above; type: cell-based; settings: IMR32, 120 hours, WST-8, Table 3
Procedure: as §2

[3] = test system: NCI-H526 human SCLC cell line; test: In Vitro Cytotoxicity Assay III (WST-8 cell viability); type: cell-based; settings: NCI-H526, 120 hours, WST-8, Table 5
Procedure: as §1, with “IC50 values” for “IC50s”

[4] = test system: IMR32 human neuroblastoma (NB) cell line; test: as above; type: cell-based; settings: IMR32, 120 hours, WST-8, Table 5
Procedure: as §1, with “IC50 values” for “IC50s”

NCI-H1048 SCLC cell line = test: In Vitro Cytotoxicity Assay II (WST-8 cell viability); type: cell-based, human; settings: NCI-H1048, 120 hours, WST-8, Table 4
Procedure: as §1

NCI-H526 SCLC cell line = test: as above; type: cell-based, human; settings: NCI-H526, 120 hours, WST-8, Table 4
Procedure: as §1

Q: `Cc1ccc(NC(=O)NCc2ccc3c(c2)CN(C2CCC(=O)NC2=O)C3=O)cc1Cl` (stereo not drawn) [CC-885, reference compound] was tested. Which IC50 (NCI-H510A SCLC cell line) did it give?
A: 0.23 nM

Q: And the IC50 (NCI-H82 SCLC cell line)?
A: 0.603 nM

Q: And the IC50 (NCI-H146 SCLC cell line)?
A: 0.527 nM

Q: What about the IC50 [1] of the same compound?
A: 0.118 nM

Q: What about the IC50 [2] of the same compound?
A: 0.145 nM

Q: And the IC50 [3]?
A: 0.128 nM

Q: And the IC50 [4]?
A: 0.0994 nM

Q: What about the IC50 (NCI-H1048 SCLC cell line) of the same compound?
A: 0.0409 nM

Q: And the IC50 (NCI-H526 SCLC cell line)?
A: 0.177 nM
